Results: patent publication US9695193B2, “Inhibitors of Plasmodium falciparum equilibrative nucleoside transporter type I as anti-parasitic compounds” (The Trustees of Columbia University in the City of New York, priority 2013, dated 2017)

Target: T1, PfENT1 (Plasmodium falciparum, UniProt Q8IDM6)
T1 construct: expressed in transfected cells; host or cells: fui1Δ yeast (Saccharomyces cerevisiae), co-expressing GFP
Type: cell-based
Settings: primary HTS, compounds at 10 μM, 125 μM 5-FUrd
Experimental: A yeast-based high throughput screening (HTS) assay was used to identify compounds that inhibit PfENT1. The compounds described in this application were identified by screening four commercially available, chemical compound libraries obtained from Dr. Donald Landry's laboratory (Department of Medicine, Columbia University). These libraries contain approximately 80,000 unique chemical entities.
In the primary screen the compounds were tested at a concentration of 10 μM. Hits were identified by the growth of fui1Δ yeast expressing PfENT1 and Green Fluorescent Protein (GFP) in the presence of the cytotoxic nucleoside 5-fluorouridine (5-FUrd). 5-FUrd is transported by PfENT1. PfENT1 expressing fui1Δ yeast will only grow in the presence of 125 μM 5-FUrd if a PfENT1 inhibitor blocks the uptake of 5-FUrd into the yeast. Significant yeast growth in the HTS in 384 well plates was determined by two criteria: 1) turbidity as determined by the optical density at 620 nm (OD620) and 2) GFP fluorescence intensity. […] Hits had to be positive by both criteria.

T1 sequence (Q8IDM6 whole entry): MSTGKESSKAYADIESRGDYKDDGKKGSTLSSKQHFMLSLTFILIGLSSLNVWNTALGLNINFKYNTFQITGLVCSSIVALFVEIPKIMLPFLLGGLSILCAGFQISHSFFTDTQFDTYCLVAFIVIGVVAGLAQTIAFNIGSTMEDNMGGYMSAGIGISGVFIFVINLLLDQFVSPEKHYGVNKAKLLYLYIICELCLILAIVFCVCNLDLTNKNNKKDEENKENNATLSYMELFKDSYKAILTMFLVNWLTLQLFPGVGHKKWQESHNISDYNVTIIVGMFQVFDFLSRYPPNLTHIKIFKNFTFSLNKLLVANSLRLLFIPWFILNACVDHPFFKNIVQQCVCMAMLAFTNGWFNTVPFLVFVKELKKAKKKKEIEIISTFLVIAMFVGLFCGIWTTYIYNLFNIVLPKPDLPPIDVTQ

In the case of `COC(=O)c1ccccc1NC(=O)c1ccc(NC(=O)C2CCCO2)cc1` (centres unmarked) [compound 99, methyl 2-({4-[(tetrahydro-2-furanylcarbonyl)amino]benzoyl}amino)benzoate], the “Avg Normalized % maximal activity” value is reported as 4.83%.

With `O=C(Nc1c(-c2ccccc2)nc2ccc(Cl)cn12)c1ccccc1` [compound 167, N-(6-chloro-2-phenylimidazo [1,2-a]pyridin-3-yl)benzamide] the “Avg Normalized % maximal activity” value was 1.96%.

With `COc1ccc(Cl)cc1C(=O)Nc1cc(C)ccn1` [compound 152, 5-chloro-2-methoxy-N-(4-methyl-2-pyridinyl)benzamide] the “Avg Normalized % maximal activity” value was 2.56%.

In the case of `Cc1ccc(NC(=O)CSc2nc3cccnc3[nH]2)c(C)c1` [compound 157, N-(2,4-dimethylphenyl)-2-(3H-imidazo[4,5-b]pyridin-2-ylthio)acetamide], the “Avg Normalized % maximal activity” value is reported as 2.12%.

For `COc1ccc(-c2cnc3ccccc3n2)cc1NC(=O)c1ccncc1` [compound 15], the “Avg Normalized % maximal activity” value was 24.18%.

With `COCc1cc(C)nc2sc(C(=O)Nc3cccc(OC)c3)c(N)c12` [compound 53, 3-amino-4-(methoxymethyl)-N-(3-methoxyphenyl)-6-methylthieno [2,3-b]pyridine-2-carboxamide] the “Avg Normalized % maximal activity” value was 7.94%.

With `O=C(Cc1cccc2ccccc12)Nc1nncs1` [compound 62, 2-(1-naphthyl)-N-1,3,4-thiadiazol-2-ylacetamide] the “Avg Normalized % maximal activity” value was 7.27%.

In the case of `O=C(Nc1cccc(-c2nc3ncccc3o2)c1)c1ccco1` [compound 11, N-(3-[1,3]oxazolo[4,5-b]pyridin-2-ylphenyl)-2-furamide], the “Avg Normalized % maximal activity” value is reported as 32.85%.

With `COCc1cc(C)nc2sc(C(=O)Nc3ccc(C(=O)OC)cc3)c(N)c12` [compound 119, methyl 4-({[3-amino-4-(methoxymethyl)-6-methylthieno[2,3-b]pyridin-2-yl]carbonyl}amino)benzoate] the “Avg Normalized % maximal activity” value was 4.25%.

`Cc1ccc(C(=O)c2cccc(NC(=O)c3cccs3)c2)cc1C` [compound 149, N-[3-(3,4-dimethylbenzoyl)phenyl]-2-thiophene-carboxamide] was tested, and the “Avg Normalized % maximal activity” value was 2.71%.

`CCC(=O)Nc1cccc(-c2nnc(-c3ccccc3C)o2)c1` [compound 114, N-{3-[5-(2-methylphenyl)-1,3,4-oxadiazol-2-yl]phenyl} propanamide] was tested, and the “Avg Normalized % maximal activity” value was 4.37%.

With `COC(=O)c1cc(NC(=O)c2cc3ccccc3o2)ccc1N1CCOCC1` [compound 73, methyl 5-[(1-benzofuran-2-ylcarbonyl)amino]-2-morpholin-4-ylbenzoate] the “Avg Normalized % maximal activity” value was 6.43%.

For `CCOC(=O)c1cc(NC(=O)c2ccccc2F)ccc1N1CCOCC1` [compound 40, ethyl 5-[(2-fluorobenzoyl)amino]-2-(4-morpholinyl)benzoate], the “Avg Normalized % maximal activity” value was 10.29%.

For `O=C(Nc1cccc(-c2cn3ccsc3n2)c1)c1ccccc1F` [compound 20, 2-fluoro-N-(3-imidazo[2,1-b][1,3]thiazol-6-ylphenyl)benzamide], the “Avg Normalized % maximal activity” value was 19.78%.

In the case of `O=P1(N(CCCl)CCCl)NCCCO1` (centres unmarked) [compound 82], the “Avg Normalized % maximal activity” value is reported as 5.76%.

With `COc1ccc(OC)c(NC(=O)CC2Nc3cc(C)c(C)cc3NC2=O)c1` (centres unmarked) [compound 171, N-(2,5-dimethoxyphenyl)-2-(6,7-dimethyl-3-oxo-1,2,3,4-tetrahydro-2-quinoxalinyl)acetamide] the “Avg Normalized % maximal activity” value was 1.60%.

With `COc1ccc(-c2nc3ccccc3o2)cc1NC(=O)c1cccnc1` [compound 27, N-[5-(1,3-benzoxazol-2-yl)-2-methoxyphenyl] nicotinamide] the “Avg Normalized % maximal activity” value was 14.03%.

For `CNC[C@H](O)[C@@H](O)[C@H](O)[C@H](O)CO` [compound 109], the “Avg Normalized % maximal activity” value was 4.65%.

For `CC(=O)c1ccc(NC(=O)CSc2nnc3c4ccccc4n(C)c3n2)cc1` [compound 143, N-(4-acetylphenyl)-2-[(5-methyl-5H-[1,2,4]triazino [5,6-b]indol-3-yl)thio]acetamide], the “Avg Normalized % maximal activity” value was 3.07%.

With `COc1cc(NC(=O)c2cccc(Br)c2)nc(OC)n1` [compound 101, 3-bromo-N-(2,6-dimethoxy-4-pyrimidinyl)benzamide] the “Avg Normalized % maximal activity” value was 4.78%.

For `COc1ccc(NC(=O)C2Cc3ccccc3C(=O)O2)cc1` (centres unmarked) [compound 106, N-(4-methoxyphenyl)-1-oxo-3,4-dihydro-1H-isochromene-3-carboxamide], the “Avg Normalized % maximal activity” value was 4.69%.

`COc1cccc(C(=O)Nc2cccc(-c3nnc(-c4ccco4)o3)c2)c1` [compound 9, N-{3-[5-(2-furyl)-1,3,4-oxadiazol-2-yl]phenyl}-3-methoxybenzamide] was tested, and the “Avg Normalized % maximal activity” value was 54.12%.

`Cc1ccc2oc(-c3ccc(NC(=O)C4CCCO4)cc3)nc2c1` (centres unmarked) [compound 39, N-[4-(5-methyl-1,3-benzoxazol-2-yl)phenyl]tetrahydro-2-furancarboxamide] was tested, and the “Avg Normalized % maximal activity” value was 10.52%.

`Cc1nc(NC(=O)c2oc3ccccc3c2C)sc1C(=O)N(C)C` [compound 22, N,N,4-trimethyl-2-{[(3-methyl-1-benzofuran-2-yl)carbonyl]amino}-1,3-thiazole-5-carboxamide] was tested, and the “Avg Normalized % maximal activity” value was 17.36%.

For `Cc1cc(C)cc(C(=O)Nc2nnc(C)s2)c1` [compound 94, 3,5-dimethyl-N-(5-methyl-1,3,4-thiadiazol-2-yl)benzamide], the “Avg Normalized % maximal activity” value was 5.01%.

With `Cc1ccccc1C(=O)Nc1ccc(-c2nc3ncccc3o2)cc1` [compound 105, 2-methyl-N-(4-[1,3]oxazolo[4,5-b]pyridin-2-ylphenyl)benzamide] the “Avg Normalized % maximal activity” value was 4.70%.

With `CCC(C(=O)NCc1cccs1)c1ccccc1` (centres unmarked) [compound 165, 2-phenyl-N-(2-thienylmethyl)butanamide] the “Avg Normalized % maximal activity” value was 2.01%.

In the case of `Cc1cccc(C(=O)Nc2ccc(-c3nnc(-c4ccco4)o3)cc2)c1` [compound 44, N-{4-[5-(2-furyl)-1,3,4-oxadiazol-2-yl]phenyl}-3-methylbenzamide], the “Avg Normalized % maximal activity” value is reported as 9.07%.

In the case of `COc1ccc(C2CC(c3ccccc3C)n3nc(N)nc3N2)cc1` (centres unmarked) [compound 133, 5-(4-methoxyphenyl)-7-(2-methylphenyl)-4,5,6,7-tetrahydro[1,2,4] triazolo[1,5-a]pyrimidin-2-amine], the “Avg Normalized % maximal activity” value is reported as 3.57%.

For `C[C@H]1CC[C@]2(NC1)O[C@H]1C[C@H]3[C@@H]4CC[C@H]5C[C@@H](O[C@@H]6O[C@H](CO)[C@H](O[C@@H]7O[C@H](CO)[C@@H](O)[C@H](O[C@@H]8OC[C@@H](O)[C@H](O)[C@H]8O)[C@H]7O[C@@H]7O[C@H](CO)[C@@H](O)[C@H](O)[C@H]7O)[C@H](O)[C@H]6O)CC[C@]5(C)[C@H]4CC[C@]3(C)[C@H]1[C@@H]2C` [compound 95], the “Avg Normalized % maximal activity” value was 5.00%.

With `Cc1cc(C)nc(NC(=O)c2cc3c(s2)CCCC3)n1` [compound 139, N-(4,6-dimethyl-2-pyrimidinyl)-4,5,6,7-tetrahydro-1-benzothiophene-2-carboxamide] the “Avg Normalized % maximal activity” value was 3.27%.

`COc1ccccc1C(=O)Nc1nnc(COc2ccc(C)cc2)s1` [compound 158, 2-methoxy-N-{5-[(4-methylphenoxy)methyl]-1,3,4-thiadiazol-2-yl}benzamide] was tested, and the “Avg Normalized % maximal activity” value was 2.12%.

`CC(=O)Nc1ccc2nc(SCC(=O)NC3CCCCC3)sc2c1` [compound 160] was tested, and the “Avg Normalized % maximal activity” value was 2.09%.

For `CCOc1ccc(N(CC(=O)N2CCN(C)CC2)S(C)(=O)=O)cc1` [compound 50], the “Avg Normalized % maximal activity” value was 8.23%.

`COc1ccc(-c2nc3ccccc3s2)cc1NC(=O)c1cccnc1` [compound 58, N-[5-(1,3-benzothiazol-2-yl)-2-methoxyphenyl] nicotinamide] was tested, and the “Avg Normalized % maximal activity” value was 7.63%.

For `O=C1OC(CO)[C@@H](O)C(O)C1O` (some centres unmarked) [compound 102], the “Avg Normalized % maximal activity” value was 4.76%.

In the case of `COCCNCCOc1ccc(C(C)(C)C)cc1C.O=C(O)C(=O)O` [compound 111, [2-(4-tert-butyl-2-methylphenoxy)ethyl](2-methoxyethyl)amine oxalate], the “Avg Normalized % maximal activity” value is reported as 4.58%.

For `CCSc1nnc(NC(=O)c2cc(Br)ccc2Cl)s1` [compound 125, 5-bromo-2-chloro-N-[5-(ethylthio)-1,3,4-thiadiazol-2-yl]benzamide], the “Avg Normalized % maximal activity” value was 3.89%.

In the case of `O=C(NC(=O)c1ccccc1)Nc1cc(N2CCOCC2)ncn1` [compound 43, N-({[6-(4-morpholinyl)-4-pyrimidinyl]amino}carbonyl) benzamide], the “Avg Normalized % maximal activity” value is reported as 9.52%.

In the case of `O=C(CSc1nnc2ccc3ccccc3n12)Nc1ccccc1F` [compound 56, N-(2-fluorophenyl)-2-([1,2,4]triazolo[4,3-a]quinolin-1-ylthio)acetamide], the “Avg Normalized % maximal activity” value is reported as 7.69%.

With `O=C(Nc1cccc(NC(=O)c2cccs2)c1)c1ccc(Br)o1` [compound 137, 5-bromo-N-{3-[(2-thienylcarbonyl)amino]phenyl}-2-furamide] the “Avg Normalized % maximal activity” value was 3.37%.

With `Cc1ccc(NC(=O)Nc2ccc(F)cc2)nc1` [compound 169, N-(4-fluorophenyl)-N′-(5-methyl-2-pyridinyl)urea] the “Avg Normalized % maximal activity” value was 1.85%.

In the case of `CC(=O)c1ccc(NC(=O)CSc2nc3cc(C)ccc3[nH]2)cc1` [compound 147, N-(4-acetylphenyl)-2-[(5-methyl-1H-benzimidazol-2-yl)thio]acetamide], the “Avg Normalized % maximal activity” value is reported as 2.77%.

`Nc1nc(N)n(-c2ccccc2)n1` [compound 118, 1-phenyl-1H-1,2,4-triazole-3,5-diamine] was tested, and the “Avg Normalized % maximal activity” value was 4.28%.
